{"source": "patent US20110105381A2", "about": "“Prodrugs of Peripheral Phenolic Opioid Antagonists” (PharmacoFore, Inc., priority 2007, published 2011)", "note": "Where a name gives a salt, the structure may show the parent alone."}
{"assay": "Plasma timecourse of N-MNLX following PO administration to rat", "type": "in vivo, male Sprague-Dawley rats", "conditions": "oral dosing in rats; Cmax and/or persistence of exposure compared with N-MNLX itself", "experimental": "(§1) Plasma Timecourse of Peripheral Phenolic Opioid Antagonists Following PO Administration to Rat\n(§2) Oral dosing: The test compounds were dissolved in saline and dosed via oral gavage into jugular vein cannulated male Sprague-Dawley rats. N-MTX and N-MNLX, each at 20 mg/kg, were used as positive controls and the test compounds were dosed at the doses indicated in Tables 1 and 2. At specified time points, blood samples were withdrawn, quenched into methanol, centrifuged at 14000 rpm @ 4° C., and stored at −80° C. until analysis. Samples were quantified via LC/MS/MS using an ABI 3000 triple-quad mass spectrometer."}
{"smiles": "C=CC[N+]1(C)CC[C@]23c4c5ccc(OC(=O)N(C)CCN)c4O[C@H]2C(=O)CC[C@@]3(O)[C@H]1C5", "note": "(stereo partly shown) [Example 14, N-Methylnaloxone 3-(N-methyl-N-(2-aminoethyl))carbamate]", "pharmacokinetic profile (e.g. oral bioavailability), N-MNLX": "improved pharmacokinetic profile"}
{"smiles": "C=CC[N+]1(C)CC[C@]23c4c5ccc(O)c4O[C@H]2C(=O)CC[C@@]3(O)[C@H]1C5.[Br-]", "note": "(stereo partly shown) [N-MNLX, N-methylnaloxone, reference compound]", "pharmacokinetic profile (e.g. oral bioavailability), N-MNLX": "poor pharmacokinetic profiles"}
{"assay": "not given", "conditions": "rat, in vivo"}
{"smiles": "CN(CCN)C(=O)Oc1ccc2c3c1O[C@H]1C(=O)CC[C@@]4(O)[C@@H](C2)[N+](C)(CC2CC2)CC[C@]314.Cl.[Cl-]", "note": "(stereo partly drawn) [Example 1, (R)—N-Methylnaltrexone 3-(N-methyl-N-(2-aminoethyl))carbamate]", "pharmacokinetic profile (e.g. oral bioavailability), N-MTX": "improved pharmacokinetic profile"}
{"assay": "Plasma timecourse of N-MTX following PO administration to rat", "conditions": "oral dosing in rats at the doses of Table 1", "experimental": "as §1, §2"}
{"smiles": "CC(=O)N[C@@H](CCCNC(=N)N)C(=O)NCCN(C)C(=O)Oc1ccc2c3c1O[C@H]1C(=O)CC[C@@]4(O)C(C2)[N@+](C)(CC2CC2)CC[C@]314", "note": "[Example 4, (R)—N-Methylnaltrexone 3-(N-methyl-N-(2-N-acetylarginylamino))ethylcarbamate]", "detectable levels of N-MTX": "did not afford detectable levels of N-MTX"}
{"smiles": "CN(CCNC(=O)[C@@H](N)CC(N)=O)C(=O)Oc1ccc2c3c1O[C@H]1C(=O)CC[C@@]4(O)C(C2)[N@+](C)(CC2CC2)CC[C@]314", "note": "[Example 5, (R)—N-Methylnaltrexone 3-(N-methyl-N-(2-N-asparaginylamino))ethylcarbamate]", "detectable levels of N-MTX": "did not afford detectable levels of N-MTX"}
{"smiles": "CN(CCNC(=O)[C@@H](N)Cc1ccc(O)cc1)C(=O)Oc1ccc2c3c1O[C@H]1C(=O)CC[C@@]4(O)C(C2)[N@+](C)(CC2CC2)CC[C@]314", "note": "[Example 7, (R)—N-Methylnaltrexone 3-(N-methyl-N-(2-N-tyrosinylamino))ethylcarbamate]", "detectable levels of N-MTX": "did not afford detectable levels of N-MTX"}
{"smiles": "C[C@H](N)C(=O)NCCN(C)C(=O)Oc1ccc2c3c1O[C@H]1C(=O)CC[C@@]4(O)C(C2)[N@+](C)(CC2CC2)CC[C@]314", "note": "[Example 8, (R)—N-Methylnaltrexone 3-(N-methyl-N-(2-N-alaninylamino))ethylcarbamate]", "detectable levels of N-MTX": "did not afford detectable levels of N-MTX"}
{"smiles": "CN(CCNC(=O)[C@@H](N)CCCCN)C(=O)Oc1ccc2c3c1O[C@H]1C(=O)CC[C@@]4(O)C(C2)[N@+](C)(CC2CC2)CC[C@]314", "note": "[Example 9, (R)—N-Methylnaltrexone 3-(N-methyl-N-(2-N-lysinylamino))ethylcarbamate]", "detectable levels of N-MTX": "did not afford detectable levels of N-MTX"}
{"smiles": "C[C@H](NC(=O)CN)C(=O)NCCN(C)C(=O)Oc1ccc2c3c1O[C@H]1C(=O)CC[C@@]4(O)C(C2)[N@+](C)(CC2CC2)CC[C@]314", "note": "[Example 12, (R)—N-Methylnaltrexone 3-(N-methyl-N-(2-N-glycinylalaninylamino))-ethylcarbamate]", "detectable levels of N-MTX": "did not afford detectable levels of N-MTX"}
{"assay": "Plasma timecourse of N-MTX following PO administration to rat", "conditions": "oral dosing in rats; Cmax and/or persistence of exposure compared with N-MTX itself"}
{"smiles": "CC(C)C[C@H](N)C(=O)NCCN(C)C(=O)Oc1ccc2c3c1O[C@H]1C(=O)CC[C@@]4(O)C(C2)[N@+](C)(CC2CC2)CC[C@]314", "note": "[Example 2, (R)—N-Methylnaltrexone 3-(N-methyl-N-(2-leucinylamino))ethylcarbamate Hydrochloride]", "pharmacokinetic profile (e.g. oral bioavailability), N-MTX": "improved pharmacokinetic profile"}
{"smiles": "CN(CCNC(=O)[C@@H](N)CCCNC(=N)N)C(=O)Oc1ccc2c3c1O[C@H]1C(=O)CC[C@@]4(O)C(C2)[N@+](C)(CC2CC2)CC[C@]314", "note": "[Example 3, (R)—N-Methylnaltrexone 3-(N-methyl-N-(2-arginylamino))ethylcarbamate]", "pharmacokinetic profile (e.g. oral bioavailability), N-MTX": "improved pharmacokinetic profile"}
{"smiles": "CN(CCNC(=O)[C@@H](N)CC(=O)O)C(=O)Oc1ccc2c3c1O[C@H]1C(=O)CC[C@@]4(O)C(C2)[N@+](C)(CC2CC2)CC[C@]314", "note": "[Example 6, (R)—N-Methylnaltrexone 3-(N-methyl-N-(2-N-aspartinylamino))ethylcarbamate]", "pharmacokinetic profile (e.g. oral bioavailability), N-MTX": "improved pharmacokinetic profile"}
{"smiles": "CN(CCNC(=O)[C@H](CCCNC(=N)N)NC(=O)CN)C(=O)Oc1ccc2c3c1O[C@H]1C(=O)CC[C@@]4(O)C(C2)[N@+](C)(CC2CC2)CC[C@]314", "note": "[Example 10, (R)—N-Methylnaltrexone 3-(N-methyl-N-(2-N-glycinylarginylamino))ethylcarbamate]", "pharmacokinetic profile (e.g. oral bioavailability), N-MTX": "improved pharmacokinetic profile"}
{"smiles": "CC(=O)NCC(=O)N[C@@H](CCCNC(=N)N)C(=O)NCCN(C)C(=O)Oc1ccc2c3c1O[C@H]1C(=O)CC[C@@]4(O)C(C2)[N@+](C)(CC2CC2)CC[C@]314", "note": "[Example 11, (R)—N-Methylnaltrexone 3-(N-methyl-N-(2-N—(N-acetyl)glycinylarginylamino))-ethylcarbamate]", "pharmacokinetic profile (e.g. oral bioavailability), N-MTX": "improved pharmacokinetic profile"}
{"smiles": "CN(CCNC(=O)[C@H](Cc1ccccc1)NC(=O)CN)C(=O)Oc1ccc2c3c1O[C@H]1C(=O)CC[C@@]4(O)C(C2)[N@+](C)(CC2CC2)CC[C@]314", "note": "[Example 13, (R)—N-Methylnaltrexone 3-(N-methyl-N-(2-N-glycinylphenylalaninylamino))-ethylcarbamate]", "pharmacokinetic profile (e.g. oral bioavailability), N-MTX": "improved pharmacokinetic profile"}
{"smiles": "C[N@@+]1(CC2CC2)CC[C@]23c4c5ccc(O)c4O[C@H]2C(=O)CC[C@@]3(O)C1C5", "note": "[N-MTX, (R)—N-methylnaltrexone, reference compound]", "pharmacokinetic profile (e.g. oral bioavailability), N-MTX": "poor pharmacokinetic profiles"}
